target: T1, SUV420H1 (Homo sapiens, UniProt Q4FZB7); experiment: Methyl transferase scintillation proximity assay; format: biochemical; details: 10µM; average of two measurements
T1 construct: purchased DiscoverX BROMOscan (bromodomains); SGC in-house methyltransferase panel
Method: (§1) Assays measuring lysine and arginine methyl transferase activity have been described in Scheer et al.. A radioactivity-based scintillation proximity assay was used to monitor incorporation of a tritium-labeled methyl group into the biotinylated substrate of the methyl transferase. A 10-μl reaction containing ^3H-SAM and substrate at concentrations close to the apparent Km values for each enzyme was prepared. The reactions were quenched with 10 μl of 7.5 M guanidine hydrochloride; 180 μl of 20 mM Tris buffer (pH 8.0) were added; and the mixture was transferred to a 96-well FlashPlate and incubated for 1 h. The counts per minute (CPM) was measured on a TopCount plate reader. The CPM in the absence of compound or enzyme was defined as 100% activity and background (0%), respectively, for each dataset.

Row | Structure (SMILES) | MTases Inhibition (%)
1 | COc1ccccc1C(=O)Nc1cc2c(cc1N1CCNC[C@H]1C)n(C)c(=O)n2C [GSK6853] | 5

same assay, conditions: average of two measurements, read-out: MTases Inhibition (%)

Row | Structure (SMILES) | inhibition at 10 µM [%]
2 | COc1cc(Cl)c(C(=O)N[C@@H](CN[C@H]2CC[C@@H](N)CC2)Cc2ccc(C#N)cc2)cc1-c1ccc(CN[C@H](C)c2ccc(C)cc2)o1 [BAY-850] | 5
3 | CN(C)CCCOc1ccc(-c2cc(NCCCn3cccn3)nc(S(C)(=O)=O)n2)cc1 [TP-238] | 3

target: T2, PRMT5 (Homo sapiens, UniProt O14744); experiment: Methyl transferase scintillation proximity assay; format: biochemical; details: 10µM; average of two measurements
T2 construct: purchased DiscoverX BROMOscan (bromodomains); SGC in-house methyltransferase panel
T2 sequence (O14744 whole entry): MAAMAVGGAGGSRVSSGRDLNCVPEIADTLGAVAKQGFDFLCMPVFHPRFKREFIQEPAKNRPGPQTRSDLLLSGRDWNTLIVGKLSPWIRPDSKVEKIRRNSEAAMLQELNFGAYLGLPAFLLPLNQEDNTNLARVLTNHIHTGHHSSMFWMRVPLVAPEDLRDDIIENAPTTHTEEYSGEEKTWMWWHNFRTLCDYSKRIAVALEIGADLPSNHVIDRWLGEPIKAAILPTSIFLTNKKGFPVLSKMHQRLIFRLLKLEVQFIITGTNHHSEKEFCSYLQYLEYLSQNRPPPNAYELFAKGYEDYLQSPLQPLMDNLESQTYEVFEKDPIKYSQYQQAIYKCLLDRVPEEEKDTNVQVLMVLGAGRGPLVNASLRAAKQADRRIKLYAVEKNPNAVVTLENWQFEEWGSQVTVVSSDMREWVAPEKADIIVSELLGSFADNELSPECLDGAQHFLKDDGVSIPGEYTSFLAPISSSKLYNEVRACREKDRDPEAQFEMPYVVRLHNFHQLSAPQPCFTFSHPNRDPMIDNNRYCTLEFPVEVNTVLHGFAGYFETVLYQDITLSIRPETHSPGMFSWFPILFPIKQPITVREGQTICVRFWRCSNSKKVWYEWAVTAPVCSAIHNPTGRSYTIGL
T2 sequence (Q9BQA1 whole entry partner): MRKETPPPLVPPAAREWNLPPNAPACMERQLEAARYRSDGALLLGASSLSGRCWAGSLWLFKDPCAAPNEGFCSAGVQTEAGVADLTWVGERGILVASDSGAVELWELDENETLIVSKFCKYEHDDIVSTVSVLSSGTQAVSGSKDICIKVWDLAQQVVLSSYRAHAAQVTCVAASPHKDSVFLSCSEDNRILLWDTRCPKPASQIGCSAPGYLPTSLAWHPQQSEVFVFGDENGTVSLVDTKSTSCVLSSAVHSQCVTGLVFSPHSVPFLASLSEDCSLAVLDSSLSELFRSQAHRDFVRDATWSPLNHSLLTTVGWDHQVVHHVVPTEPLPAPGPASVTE
Method: as §1

Row | Structure (SMILES) | MTases Inhibition (%)
4 | COc1ccccc1C(=O)Nc1cc2c(cc1N1CCNC[C@H]1C)n(C)c(=O)n2C [GSK6853] | 3

same assay, conditions: average of two measurements, read-out: MTases Inhibition (%)

Row | Structure (SMILES) | inhibition at 10 µM [%]
5 | COc1cc(Cl)c(C(=O)N[C@@H](CN[C@H]2CC[C@@H](N)CC2)Cc2ccc(C#N)cc2)cc1-c1ccc(CN[C@H](C)c2ccc(C)cc2)o1 [BAY-850] | 4
6 | CN(C)CCCOc1ccc(-c2cc(NCCCn3cccn3)nc(S(C)(=O)=O)n2)cc1 [TP-238] | -12

target: T3, PRMT3 (Homo sapiens, UniProt O60678); experiment: Methyl transferase scintillation proximity assay; format: biochemical; details: 10µM; average of two measurements
T3 construct: purchased DiscoverX BROMOscan (bromodomains); SGC in-house methyltransferase panel
Method: as §1

Row | Structure (SMILES) | MTases Inhibition (%)
7 | COc1ccccc1C(=O)Nc1cc2c(cc1N1CCNC[C@H]1C)n(C)c(=O)n2C [GSK6853] | 1

same assay, conditions: average of two measurements, read-out: MTases Inhibition (%)

Row | Structure (SMILES) | inhibition at 10 µM [%]
8 | COc1cc(Cl)c(C(=O)N[C@@H](CN[C@H]2CC[C@@H](N)CC2)Cc2ccc(C#N)cc2)cc1-c1ccc(CN[C@H](C)c2ccc(C)cc2)o1 [BAY-850] | 3
9 | CN(C)CCCOc1ccc(-c2cc(NCCCn3cccn3)nc(S(C)(=O)=O)n2)cc1 [TP-238] | 5

target: T4, DNMT1 (Homo sapiens, UniProt P26358); experiment: Methyl transferase scintillation proximity assay; format: biochemical; details: 10µM; average of two measurements
T4 construct: purchased DiscoverX BROMOscan (bromodomains); SGC in-house methyltransferase panel
Method: as §1

Row | Structure (SMILES) | MTases Inhibition (%)
10 | COc1ccccc1C(=O)Nc1cc2c(cc1N1CCNC[C@H]1C)n(C)c(=O)n2C [GSK6853] | -8

same assay, conditions: average of two measurements, read-out: MTases Inhibition (%)

Row | Structure (SMILES) | inhibition at 10 µM [%]
11 | COc1cc(Cl)c(C(=O)N[C@@H](CN[C@H]2CC[C@@H](N)CC2)Cc2ccc(C#N)cc2)cc1-c1ccc(CN[C@H](C)c2ccc(C)cc2)o1 [BAY-850] | 4
12 | CN(C)CCCOc1ccc(-c2cc(NCCCn3cccn3)nc(S(C)(=O)=O)n2)cc1 [TP-238] | 3

target: T5, PRMT1 (Homo sapiens, UniProt Q99873); experiment: Methyl transferase scintillation proximity assay; format: biochemical; details: 10µM; average of two measurements
T5 construct: purchased DiscoverX BROMOscan (bromodomains); SGC in-house methyltransferase panel
T5 sequence (Q99873 whole entry): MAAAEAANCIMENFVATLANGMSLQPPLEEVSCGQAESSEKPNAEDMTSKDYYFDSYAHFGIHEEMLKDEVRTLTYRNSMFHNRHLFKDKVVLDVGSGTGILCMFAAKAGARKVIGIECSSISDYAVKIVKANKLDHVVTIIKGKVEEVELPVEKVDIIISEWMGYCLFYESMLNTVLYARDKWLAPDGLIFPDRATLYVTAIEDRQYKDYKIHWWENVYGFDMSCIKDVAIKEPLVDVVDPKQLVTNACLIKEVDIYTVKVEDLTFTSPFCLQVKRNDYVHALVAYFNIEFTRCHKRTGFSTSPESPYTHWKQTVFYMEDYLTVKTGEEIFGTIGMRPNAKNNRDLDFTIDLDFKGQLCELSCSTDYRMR
Method: as §1

Row | Structure (SMILES) | MTases Inhibition (%)
13 | COc1ccccc1C(=O)Nc1cc2c(cc1N1CCNC[C@H]1C)n(C)c(=O)n2C [GSK6853] | -7

same assay, conditions: average of two measurements, read-out: MTases Inhibition (%)

Row | Structure (SMILES) | inhibition at 10 µM [%]
14 | COc1cc(Cl)c(C(=O)N[C@@H](CN[C@H]2CC[C@@H](N)CC2)Cc2ccc(C#N)cc2)cc1-c1ccc(CN[C@H](C)c2ccc(C)cc2)o1 [BAY-850] | 15
15 | CN(C)CCCOc1ccc(-c2cc(NCCCn3cccn3)nc(S(C)(=O)=O)n2)cc1 [TP-238] | 0

target: T6, BCDIN3D (Homo sapiens, UniProt Q7Z5W3); experiment: Methyl transferase scintillation proximity assay; format: biochemical; details: 10µM; average of two measurements
T6 construct: purchased DiscoverX BROMOscan (bromodomains); SGC in-house methyltransferase panel
T6 sequence (Q7Z5W3 1-292): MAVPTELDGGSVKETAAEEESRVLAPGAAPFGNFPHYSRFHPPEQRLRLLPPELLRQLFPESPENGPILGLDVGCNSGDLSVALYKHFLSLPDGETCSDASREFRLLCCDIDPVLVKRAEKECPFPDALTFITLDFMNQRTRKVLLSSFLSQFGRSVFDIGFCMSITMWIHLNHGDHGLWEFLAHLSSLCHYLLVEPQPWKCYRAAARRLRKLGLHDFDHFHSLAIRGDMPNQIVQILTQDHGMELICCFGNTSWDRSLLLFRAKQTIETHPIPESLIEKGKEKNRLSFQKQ
Method: as §1

Row | Structure (SMILES) | MTases Inhibition (%)
16 | COc1ccccc1C(=O)Nc1cc2c(cc1N1CCNC[C@H]1C)n(C)c(=O)n2C [GSK6853] | 5

same assay, conditions: average of two measurements, read-out: MTases Inhibition (%)

Row | Structure (SMILES) | inhibition at 10 µM [%]
17 | COc1cc(Cl)c(C(=O)N[C@@H](CN[C@H]2CC[C@@H](N)CC2)Cc2ccc(C#N)cc2)cc1-c1ccc(CN[C@H](C)c2ccc(C)cc2)o1 [BAY-850] | 28
18 | CN(C)CCCOc1ccc(-c2cc(NCCCn3cccn3)nc(S(C)(=O)=O)n2)cc1 [TP-238] | 4

target: T7, ASH1L (Homo sapiens, UniProt Q9NR48); experiment: Methyl transferase scintillation proximity assay; format: biochemical; details: 10µM; average of two measurements
T7 construct: purchased DiscoverX BROMOscan (bromodomains); SGC in-house methyltransferase panel
Method: as §1

Row | Structure (SMILES) | MTases Inhibition (%)
19 | COc1ccccc1C(=O)Nc1cc2c(cc1N1CCNC[C@H]1C)n(C)c(=O)n2C [GSK6853] | 4

same assay, conditions: average of two measurements, read-out: MTases Inhibition (%)

Row | Structure (SMILES) | inhibition at 10 µM [%]
20 | COc1cc(Cl)c(C(=O)N[C@@H](CN[C@H]2CC[C@@H](N)CC2)Cc2ccc(C#N)cc2)cc1-c1ccc(CN[C@H](C)c2ccc(C)cc2)o1 [BAY-850] | 3
21 | CN(C)CCCOc1ccc(-c2cc(NCCCn3cccn3)nc(S(C)(=O)=O)n2)cc1 [TP-238] | -4

target: T8, SUV39H2 (Homo sapiens, UniProt Q9H5I1); experiment: Methyl transferase scintillation proximity assay; format: biochemical; details: 10µM; average of two measurements
T8 construct: purchased DiscoverX BROMOscan (bromodomains); SGC in-house methyltransferase panel
Method: as §1

Row | Structure (SMILES) | MTases Inhibition (%)
22 | COc1ccccc1C(=O)Nc1cc2c(cc1N1CCNC[C@H]1C)n(C)c(=O)n2C [GSK6853] | 1

same assay, conditions: average of two measurements, read-out: MTases Inhibition (%)

Row | Structure (SMILES) | inhibition at 10 µM [%]
23 | COc1cc(Cl)c(C(=O)N[C@@H](CN[C@H]2CC[C@@H](N)CC2)Cc2ccc(C#N)cc2)cc1-c1ccc(CN[C@H](C)c2ccc(C)cc2)o1 [BAY-850] | -2
24 | CN(C)CCCOc1ccc(-c2cc(NCCCn3cccn3)nc(S(C)(=O)=O)n2)cc1 [TP-238] | 7

target: T9, PRDM9 (Homo sapiens, UniProt Q9NQV7); experiment: Methyl transferase scintillation proximity assay; format: biochemical; details: 10µM; average of two measurements
T9 construct: purchased DiscoverX BROMOscan (bromodomains); SGC in-house methyltransferase panel
T9 sequence (Q9NQV7 whole entry): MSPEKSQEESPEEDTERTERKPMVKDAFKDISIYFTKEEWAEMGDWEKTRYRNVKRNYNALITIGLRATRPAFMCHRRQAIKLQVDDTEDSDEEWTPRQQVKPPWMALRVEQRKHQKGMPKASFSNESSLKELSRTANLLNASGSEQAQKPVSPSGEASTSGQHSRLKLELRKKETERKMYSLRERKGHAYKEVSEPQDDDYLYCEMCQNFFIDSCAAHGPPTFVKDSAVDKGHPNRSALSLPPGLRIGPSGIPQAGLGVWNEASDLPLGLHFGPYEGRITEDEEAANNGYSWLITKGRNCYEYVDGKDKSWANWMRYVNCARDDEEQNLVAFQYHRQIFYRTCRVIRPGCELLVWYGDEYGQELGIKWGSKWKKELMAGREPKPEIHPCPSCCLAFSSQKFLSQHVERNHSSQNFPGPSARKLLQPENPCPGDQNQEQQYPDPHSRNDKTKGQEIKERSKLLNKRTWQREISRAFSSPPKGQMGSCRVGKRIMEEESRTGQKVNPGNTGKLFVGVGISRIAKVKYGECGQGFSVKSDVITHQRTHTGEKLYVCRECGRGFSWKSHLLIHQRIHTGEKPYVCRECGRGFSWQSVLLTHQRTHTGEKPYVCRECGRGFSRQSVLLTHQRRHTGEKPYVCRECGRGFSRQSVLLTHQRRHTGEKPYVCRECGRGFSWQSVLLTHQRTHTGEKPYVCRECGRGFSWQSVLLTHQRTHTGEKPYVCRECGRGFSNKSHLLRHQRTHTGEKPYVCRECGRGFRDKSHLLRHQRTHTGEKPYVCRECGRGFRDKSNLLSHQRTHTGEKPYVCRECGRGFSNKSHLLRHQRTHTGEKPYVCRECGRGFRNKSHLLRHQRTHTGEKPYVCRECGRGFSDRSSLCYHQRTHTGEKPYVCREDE
Method: as §1

Row | Structure (SMILES) | MTases Inhibition (%)
25 | COc1ccccc1C(=O)Nc1cc2c(cc1N1CCNC[C@H]1C)n(C)c(=O)n2C [GSK6853] | -2

same assay, conditions: average of two measurements, read-out: MTases Inhibition (%)

Row | Structure (SMILES) | inhibition at 10 µM [%]
26 | COc1cc(Cl)c(C(=O)N[C@@H](CN[C@H]2CC[C@@H](N)CC2)Cc2ccc(C#N)cc2)cc1-c1ccc(CN[C@H](C)c2ccc(C)cc2)o1 [BAY-850] | 10
27 | CN(C)CCCOc1ccc(-c2cc(NCCCn3cccn3)nc(S(C)(=O)=O)n2)cc1 [TP-238] | -1

target: T10, PRMT6 (Homo sapiens, UniProt Q96LA8); experiment: Methyl transferase scintillation proximity assay; format: biochemical; details: 10µM; average of two measurements
T10 construct: purchased DiscoverX BROMOscan (bromodomains); SGC in-house methyltransferase panel
T10 sequence (Q96LA8 whole entry): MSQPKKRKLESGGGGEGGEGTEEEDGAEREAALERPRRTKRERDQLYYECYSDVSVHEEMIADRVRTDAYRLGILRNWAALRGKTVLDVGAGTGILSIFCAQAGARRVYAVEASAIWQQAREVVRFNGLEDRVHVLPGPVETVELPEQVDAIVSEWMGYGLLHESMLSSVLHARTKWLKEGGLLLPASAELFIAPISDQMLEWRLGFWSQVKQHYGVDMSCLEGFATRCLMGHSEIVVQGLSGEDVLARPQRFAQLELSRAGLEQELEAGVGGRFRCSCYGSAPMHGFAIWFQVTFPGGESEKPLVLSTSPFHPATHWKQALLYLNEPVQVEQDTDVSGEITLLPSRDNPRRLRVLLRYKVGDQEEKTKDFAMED
Method: as §1

Row | Structure (SMILES) | MTases Inhibition (%)
28 | COc1ccccc1C(=O)Nc1cc2c(cc1N1CCNC[C@H]1C)n(C)c(=O)n2C [GSK6853] | 5

same assay, conditions: average of two measurements, read-out: MTases Inhibition (%)

Row | Structure (SMILES) | inhibition at 10 µM [%]
29 | COc1cc(Cl)c(C(=O)N[C@@H](CN[C@H]2CC[C@@H](N)CC2)Cc2ccc(C#N)cc2)cc1-c1ccc(CN[C@H](C)c2ccc(C)cc2)o1 [BAY-850] | 13
30 | CN(C)CCCOc1ccc(-c2cc(NCCCn3cccn3)nc(S(C)(=O)=O)n2)cc1 [TP-238] | 6

target: T11, PRMT8 (Homo sapiens, UniProt Q9NR22); experiment: Methyl transferase scintillation proximity assay; format: biochemical; details: 10µM; average of two measurements
T11 construct: purchased DiscoverX BROMOscan (bromodomains); SGC in-house methyltransferase panel
T11 sequence (Q9NR22 whole entry): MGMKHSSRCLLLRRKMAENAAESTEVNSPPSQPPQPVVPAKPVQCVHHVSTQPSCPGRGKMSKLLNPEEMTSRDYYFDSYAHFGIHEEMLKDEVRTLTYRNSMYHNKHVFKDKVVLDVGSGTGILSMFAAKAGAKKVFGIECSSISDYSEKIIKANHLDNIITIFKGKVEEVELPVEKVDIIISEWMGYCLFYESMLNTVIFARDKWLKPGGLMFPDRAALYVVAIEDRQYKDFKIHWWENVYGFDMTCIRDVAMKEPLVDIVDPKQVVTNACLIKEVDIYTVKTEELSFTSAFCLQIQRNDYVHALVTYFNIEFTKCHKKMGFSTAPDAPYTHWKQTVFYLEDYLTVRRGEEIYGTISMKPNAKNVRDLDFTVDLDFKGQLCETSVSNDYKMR
Method: as §1

Row | Structure (SMILES) | MTases Inhibition (%)
31 | COc1ccccc1C(=O)Nc1cc2c(cc1N1CCNC[C@H]1C)n(C)c(=O)n2C [GSK6853] | 3

same assay, conditions: average of two measurements, read-out: MTases Inhibition (%)

Row | Structure (SMILES) | inhibition at 10 µM [%]
32 | COc1cc(Cl)c(C(=O)N[C@@H](CN[C@H]2CC[C@@H](N)CC2)Cc2ccc(C#N)cc2)cc1-c1ccc(CN[C@H](C)c2ccc(C)cc2)o1 [BAY-850] | 4
33 | CN(C)CCCOc1ccc(-c2cc(NCCCn3cccn3)nc(S(C)(=O)=O)n2)cc1 [TP-238] | 3

target: T12, PRC2-EZH1 (Homo sapiens, UniProt Q92800); experiment: Methyl transferase scintillation proximity assay; format: biochemical; details: 10µM; average of two measurements
T12 construct: purchased DiscoverX BROMOscan (bromodomains); SGC in-house methyltransferase panel
T12 sequence (Q92800 whole entry): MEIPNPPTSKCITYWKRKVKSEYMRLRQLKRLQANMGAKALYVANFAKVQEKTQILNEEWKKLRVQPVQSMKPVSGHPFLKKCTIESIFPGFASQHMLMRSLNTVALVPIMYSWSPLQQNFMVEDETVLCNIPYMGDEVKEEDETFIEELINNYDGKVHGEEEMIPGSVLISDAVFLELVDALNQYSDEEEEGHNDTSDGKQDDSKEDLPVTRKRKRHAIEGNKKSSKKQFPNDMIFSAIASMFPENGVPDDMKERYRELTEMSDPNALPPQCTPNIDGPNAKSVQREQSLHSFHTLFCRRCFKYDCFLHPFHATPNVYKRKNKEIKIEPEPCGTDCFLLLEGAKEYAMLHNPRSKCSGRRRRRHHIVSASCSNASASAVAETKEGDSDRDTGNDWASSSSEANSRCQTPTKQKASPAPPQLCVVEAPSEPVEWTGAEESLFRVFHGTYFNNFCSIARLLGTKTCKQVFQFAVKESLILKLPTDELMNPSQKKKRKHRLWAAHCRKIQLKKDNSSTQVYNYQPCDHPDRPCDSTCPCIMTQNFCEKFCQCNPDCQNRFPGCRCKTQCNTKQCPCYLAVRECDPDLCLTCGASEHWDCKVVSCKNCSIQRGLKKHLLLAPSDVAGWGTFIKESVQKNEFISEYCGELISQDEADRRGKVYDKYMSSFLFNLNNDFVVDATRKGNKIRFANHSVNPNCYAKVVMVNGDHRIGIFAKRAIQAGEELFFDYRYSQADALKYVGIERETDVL
T12 sequence (O75530 whole entry partner): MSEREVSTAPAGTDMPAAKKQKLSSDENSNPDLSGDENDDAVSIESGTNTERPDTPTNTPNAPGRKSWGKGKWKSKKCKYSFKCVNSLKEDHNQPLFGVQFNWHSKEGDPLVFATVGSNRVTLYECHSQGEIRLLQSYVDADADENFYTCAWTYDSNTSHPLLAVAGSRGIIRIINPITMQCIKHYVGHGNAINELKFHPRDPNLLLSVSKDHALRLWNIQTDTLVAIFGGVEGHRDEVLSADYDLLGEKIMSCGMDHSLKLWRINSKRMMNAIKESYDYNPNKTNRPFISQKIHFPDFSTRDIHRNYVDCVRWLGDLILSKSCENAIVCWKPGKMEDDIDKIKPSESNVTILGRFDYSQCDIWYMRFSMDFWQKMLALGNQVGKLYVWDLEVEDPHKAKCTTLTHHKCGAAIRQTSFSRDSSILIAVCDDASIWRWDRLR
T12 sequence (Q15022 whole entry partner): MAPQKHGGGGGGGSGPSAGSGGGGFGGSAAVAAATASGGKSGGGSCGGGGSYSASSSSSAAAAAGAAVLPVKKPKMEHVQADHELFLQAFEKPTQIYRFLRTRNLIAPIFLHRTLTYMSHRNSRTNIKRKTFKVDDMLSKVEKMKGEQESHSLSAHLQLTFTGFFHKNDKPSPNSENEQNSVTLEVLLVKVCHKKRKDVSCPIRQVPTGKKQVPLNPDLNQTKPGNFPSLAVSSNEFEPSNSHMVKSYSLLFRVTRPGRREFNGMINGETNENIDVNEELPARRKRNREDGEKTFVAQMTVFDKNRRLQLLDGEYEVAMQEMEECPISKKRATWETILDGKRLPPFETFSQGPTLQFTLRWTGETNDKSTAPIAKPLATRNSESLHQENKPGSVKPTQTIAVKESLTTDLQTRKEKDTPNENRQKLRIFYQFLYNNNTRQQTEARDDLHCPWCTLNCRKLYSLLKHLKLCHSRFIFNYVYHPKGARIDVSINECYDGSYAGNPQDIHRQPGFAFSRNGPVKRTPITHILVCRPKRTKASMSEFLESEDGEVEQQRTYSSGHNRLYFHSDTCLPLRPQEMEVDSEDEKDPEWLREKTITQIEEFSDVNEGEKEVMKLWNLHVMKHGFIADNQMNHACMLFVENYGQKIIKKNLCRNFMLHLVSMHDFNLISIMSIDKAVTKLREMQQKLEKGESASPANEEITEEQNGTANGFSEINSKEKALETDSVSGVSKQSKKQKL
Method: as §1

Row | Structure (SMILES) | MTases Inhibition (%)
34 | COc1ccccc1C(=O)Nc1cc2c(cc1N1CCNC[C@H]1C)n(C)c(=O)n2C [GSK6853] | 1

same assay, conditions: average of two measurements, read-out: MTases Inhibition (%)

Row | Structure (SMILES) | inhibition at 10 µM [%]
35 | COc1cc(Cl)c(C(=O)N[C@@H](CN[C@H]2CC[C@@H](N)CC2)Cc2ccc(C#N)cc2)cc1-c1ccc(CN[C@H](C)c2ccc(C)cc2)o1 [BAY-850] | 19
36 | CN(C)CCCOc1ccc(-c2cc(NCCCn3cccn3)nc(S(C)(=O)=O)n2)cc1 [TP-238] | 6
